21 molecules from US11840495B2, “Compositions and methods related to di-substituted bicyclo[2.2.1] heptanamine-containing compounds” (The Broad Institute, Inc., priority 2020, dated 2023) can be followed below.

Where two headings read alike, the source gives them in different places. A value given as a limit tells only on which side of the number the result lay.

Assay [1] deals with MUC1-wt. Put plainly: Immunofluorescence imaging of MUC1-wt in P cells (Example 2). The assay is classed as cell-based. Particulars: for EC50: 48 hr incubation, MUC1-wt; for WT ECMax (%) / WT EMax: 48 hr; for WT ECMax (%): DMSO = 0, JQ1 (250 nM) = −100% activity; for WT EMax: DMSO = 0, JQ1 = −100% activity, in %. The method, then: (§1) P cells were seeded 24 hr prior to compound treatment at a density of 12,000 cells/well in 384 well Cell Carrier Ultra plates (6057308, Perkin Elmer), pre-coated with 0.25 mg/mL Synthemax II SC Substrate (3535, Corning). Compounds were used at 5 doses (35, 3.5, 0.35, 0.035 and 0.0035 μM) for the primary screen and 10 doses (16, 5.6, 1.8, 0.6, 0.21, 0.07, 0.02, 0.008, 0.002 and 0.0008 μM) for the following screens. The compounds, in two replicates, were transferred from compound source plates to the cell plates using the HighRes Pin Tool. DMSO was used as a negative control and JQ1 (250 nM) (a bromodomain inhibitor) was chosen as a positive control, based on earlier studies showing its potent effect on reducing total MUC1 mRNA levels (data not shown). After 48 hr incubation, cells were fixed for 20 min in 4% PFA (Electron Microscopy Sciences) in PBS, washed twice, then permeabilized (10 min) with 0.5% Triton-X100 (X100-100ML, Sigma-Aldrich) in PBS and washed once more. Cells were blocked for 10 min at RT with Blocking solution (100 mM Tris HCL pH8; 150 mM NaCL; 5 g/L Blocking Reagent [11096176001, Roche]), then incubated 90 min at RT with one of the following primary antibodies in Roche Blocking solution: 1:500, monoclonal Fab-A-VSH anti-MUC1-fs, AbD22655.2, Bio-Rad; 1:2000, monoclonal mouse anti-MUC1 (214D4), 05-652-KC, Millipore; 1:1000, monoclonal, Rabbit anti-GM130 (D6B1) XP, 12480, Cell signaling technology. The primary antibody cocktail was incubated at RT for 1.5 hr, followed by four PBS wash cycles. The secondary antibody cocktail contained four components that were all prepared at a 1:1000 dilution in the Roche blocking solution and consisted of Alexa Fluor® 488-conjugated AffiniPure F(ab′)2 Fragment Goat anti-Human IgG, 109-546-097, Jackson Immunoresearch; Alexa Fluor® 647-conjugated Goat anti-Rabbit IgG, A-21246, Thermo Fisher Scientific®; Alexa Fluor® 546 Goat anti-mouse IgG, A-21123, Thermo Fisher Scientific® and Hoechst 33342 stain (62249, Thermo Fisher Scientific®). The secondary antibody cocktail was incubated at RT for 45 min, followed by four PBS wash cycles. Finally, plates were sealed with a Plate Loc plate and stored in Liconic incubator at 10° C. until imaging. Following image analysis, three parameters were selected, i) MUC1-fs and ii) MUC1-wt total cytoplasm intensity (averaged per cell) and iii) cell number as was detected by Hoechst 33342 stained nuclei. The levels of MUC1-fs and MUC1-wt found following DMSO and JQ1 were defined as 0 and −100% activity, respectively. The values obtained for all compounds were normalized accordingly. Cell number was normalized to DMSO control.

Assay [2] concerns MUC1-fs. Put plainly: Immunofluorescence imaging of MUC1-fs in P cells (Example 2). The assay is classed as cell-based. Particulars: for EC50: 48 hr incubation, MUC1-fs; for ECMax (%) / Emax: 48 hr; for ECMax (%): DMSO = 0, JQ1 (250 nM) = −100% activity; for Emax: DMSO = 0, JQ1 = −100% activity, in %. The method, then: as §1

The EC50 is the concentration needed to bring the measured effect to its halfway point. Take `Cl.N[C@@H]1[C@@H]2CC[C@@H](C2)C12CCCCCC2` (racemic) [Compound 215]: the EC50 in assay [1] (read-out: WT EC50 (Cytoplasm)) is 8.87 µM; in assay [2] (read-out: EC50(Spot)) it was 0.11 µM. Further, the “WT ECMax (%)” value in assay [1] is given as 63%. For the same molecule, in assay [2], the “ECMax (%)” value is recorded as −56.54%.
Take `Cl.N[C@@H]1[C@@H]2CC[C@@H](C2)C12CCCC(C(=O)N1CCCCC1)C2` (stereo partly drawn) [Compound 227, ((1S,3R,4R)-3-aminospiro[bicyclo[2.2.1]heptane-2,1′-cyclohexan]-3′-yl)(piperidin-1-yl)methanone hydrochloride]: the EC50 in assay [1] (read-out: WT EC50) and in assay [2] (read-out: EC50) was above 16 µM in each case. The “WT EMax” value in assay [1] is on record as 4.6. This molecule had an Emax in assay [2] of −39.9.
Consider `Cl.NC1C2CCC(C2)C12CC(O)C(O)C2` (racemic) [Compound 228, rac-3-aminospiro[bicyclo[2.2.1]heptane-2,1′-cyclopentane]-3′,4′-diol hydrochloride], for which the EC50 in assay [1] (read-out: WT EC50) and in assay [2] (read-out: EC50) was above 16 µM each time. The “WT EMax” value in assay [1] is listed as −10.2. In assay [2], this molecule displayed an Emax of −15.1.
For the molecule `CC[C@@]1(Cc2ccccc2)[C@@H]2CC[C@@H](C2)[C@@H]1N.Cl` [Compound 219-P2, (1S,2S,3R,4R)-3-benzyl-3-ethylbicyclo[2.2.1]heptan-2-amine hydrochloride], the EC50 in assay [1] (read-out: WT EC50) and in assay [2] (read-out: EC50) was above 16 µM throughout. Also, the “WT EMax” value in assay [1] is 11.3. Besides, the Emax in assay [2] was −10.3.
As to `Cl.N[C@@H]1[C@@H]2CC[C@@H](C2)[C@]12CCC[C@@H](CO)C2` [Compound 220-P2, ((1S,2R,3R,3′R,4R)-3-aminospiro[bicyclo[2.2.1]heptane-2,1′-cyclohexan]-3′-yl)methanol hydrochloride], the EC50 in assay [2] (read-out: EC50) is above 16 µM. This molecule displayed an Emax in assay [2] of 9.4.
Turning to `C[C@]1(N)[C@@H]2CC[C@@H](C2)C12CCCCC2.Cl` [Compound 234, (1S,3S,4R)-3-methylspiro[bicyclo[2.2.1]heptane-2,1′-cyclohexan]-3-amine hydrochloride], the EC50 in assay [1] (read-out: WT EC50) is above 16 µM; in assay [2] (read-out: EC50), 4.83 µM. Moreover, the “WT EMax” value in assay [1] is listed as 6.7. Moreover, in assay [2], the Emax is listed as −96.
Take `NC1C2CCC(C2)C12CCC(O)C2` (racemic) [Compound 249C, rac-3-aminospiro[bicyclo[2.2.1]heptane-2,1′-cyclopentan]-3′-ol]: the EC50 in assay [1] (read-out: WT EC50) is above 16 µM; in assay [2] (read-out: EC50), 6.38 µM. Also, in assay [1], the “WT EMax” value is −11.9. In assay [2], this molecule came in with an Emax of −74.4.
“(1R,3S,4S)-spiro[bicyclo[2.2.1]heptane-3,1′-cyclopentan]-2-amine hydrochloride [Compound 209-P1]”: the concentration giving a half-maximal response (EC50) in assay [1] (read-out: WT EC50 (Cytoplasm)) was above 5.6 µM; in assay [2] (read-out: EC50(Spot)), 0.04 µM. Also, the “WT ECMax (%)” value in assay [1] is reported as −210%. Moreover, the “ECMax (%)” value in assay [2] is given as −70.66%.
For `CC(C)[C@@]1(C)[C@H]2CC[C@H](C2)[C@H]1N.Cl` [Compound 246-A, (1R,2R,3S,4S)-3-isopropyl-3-methylbicyclo[2.2.1]heptan-2-amine hydrochloride], the concentration giving a half-maximal response (EC50) in assay [1] (read-out: WT EC50) is above 16 µM; in assay [2] (read-out: EC50), 1.9 µM. In addition, the “WT EMax” value in assay [1] is on record as 20.7. Besides, the Emax in assay [2] is reported as −67.8.
For `NC1C2CCC(C2)C12CC1CCC2C1` (racemic) [Compound 238-A, rac-2,2′-spirobi[bicyclo[2.2.1]heptan]-3-amine] the same measures were 1.8 µM, 0.006 µM, 38.7 and −108.1.
For `COC1CC2(CC1OC)C1CCC(C1)C2N.Cl` (racemic) [Compound 229, rac-3′,4′-dimethoxyspiro[bicyclo[2.2.1]heptane-2,1′-cyclopentan]-3-amine hydrochloride] the same measures were above 16 µM, 15.5 µM, 10.3 and −48.1.
Consider “(1S,3R,4R)-spiro[bicyclo[2.2.1]heptane-3,1′-cyclohexan]-2-amine [Compound 212-P2]”, for which the EC50 is 2.6 µM in assay [1] (read-out: WT EC50 (Cytoplasm)) and 0.01 µM in assay [2] (read-out: EC50(Spot)). Also, the “WT ECMax (%)” value in assay [1] was 183.41%. For the same molecule, the “ECMax (%)” value in assay [2] was −68.36%.
In the case of `Cl.N[C@@H]1[C@@H]2CC[C@@H](C2)[C@]12CCC[C@H](CO)C2` [Compound 220-P1, ((1S,2R,3R,3′S,4R)-3-aminospiro[bicyclo[2.2.1]heptane-2,1′-cyclohexan]-3′-yl)methanol hydrochloride], in assay [2] (read-out: EC50), the half-maximal effective concentration (EC50) is above 16 µM. Besides, in assay [2], the Emax amounted to 6.0.
For the molecule `Cl.NC1C2CCC(C2)C12CC1CCC2C1` (racemic) [Compound 238, rac-2,2′-spirobi[bicyclo[2.2.1]heptan]-3-amine hydrochloride], the EC50 came to 0.74 µM in assay [1] (hydrochloride, read-out: WT EC50) and 0.032 µM in assay [2] (hydrochloride, read-out: EC50). The “WT EMax” value in assay [1] came out at 68.9. Also, the Emax in assay [2] is −96.4.
Consider `COCC1CCCC2(C1)C1CCC(C1)C2N.Cl` (racemic) [Compound 225-2, rac-3′-(methoxymethyl)spiro[bicyclo[2.2.1]heptane-2,1′-cyclohexan]-3-amine hydrogen chloride], for which the EC50 was above 16 µM in assay [1] (read-out: WT EC50) and 10.1 µM in assay [2] (read-out: EC50). Moreover, the “WT EMax” value in assay [1] was −11.1. Moreover, in assay [2], the Emax is −20.7.
Taken in the same sequence, the figures for `Cl.N[C@H]1[C@@H]2CC[C@@H](C2)C12CCCC(C(=O)N1CCCCC1)C2` (stereo partly drawn) [Compound 227-1, ((1S,3S,4R)-3-aminospiro[bicyclo[2.2.1]heptane-2,1′-cyclohexan]-3′-yl)(piperidin-1-yl)methanone hydrochloride] were above 16 µM, 3.6 µM, −7.0 and −79.5.
Taken in the same sequence, the figures for `NC1C2CCC(C2)C12CC1CC1C2` (racemic) [Compound 236, rac-spiro[bicyclo[2.2.1]heptane-2,3′-bicyclo[3.1.0]hexan]-3-amine] were above 16 µM, 0.962 µM, −20.3 and −89.6.
For `CC[C@]1(Cc2ccccc2)[C@H]2CC[C@H](C2)[C@H]1N.Cl` [Compound 219-P1, (1R,2R,3S,4S)-3-benzyl-3-ethylbicyclo[2.2.1]heptan-2-amine hydrochloride] the same measures were above 16 µM, above 16 µM, 12.4 and 5.6.
Regarding `CC12CC3(CC1(C)C2)C1CCC(C1)C3N.Cl` (racemic) [Compound 237, rac-1′,5′-dimethylspiro[bicyclo[2.2.1]heptane-2,3′-bicyclo[3.1.0]hexan]-3-amine hydrochloride], the EC50 in assay [1] (read-out: WT EC50) was above 16 µM; in assay [2] (read-out: EC50) it was 13.3 µM. In assay [1], the “WT EMax” value is recorded as −10.0. Further, the Emax in assay [2] is −45.1.
On to `CC[C@]1(Cc2ccccc2)[C@@H]2CC[C@@H](C2)[C@@H]1N` [Compound 222-P2, (1S,2S,3S,4R)-3-benzyl-3-ethylbicyclo[2.2.1]heptan-2-amine], for which, in assay [2] (read-out: EC50), the EC50 was above 16 µM. In assay [2], the Emax is given as 19.0.
Taken in the same sequence, the figures for `CC[C@@]1(Cc2ccccc2)[C@H]2CC[C@H](C2)[C@H]1N` [Compound 222-P1, (1R,2R,3R,4S)-3-benzyl-3-ethylbicyclo[2.2.1]heptan-2-amine] were above 16 µM and −17.9.
